This is an account of results in patent publication US8022072B2, “Azolylmethylidenehydrazine derivative and use thereof” (Kaken Pharmaceutical Co., Ltd., priority 2007, dated 2011).

For assay [1], the system named is Trichophyton rubrum KD-101. Nature of the assay: Antifungal activity evaluation test, MIC, Trichophyton rubrum KD-101. It counts as cell-based. The conditions noted are these: KD101, 168 h, Sabouraud Dextrose Broth, 30° C., 7 days, visual, read-out: MIC T. rub. KD-101.
Assay [2] deals with Malassezia furfur IFO-0656. As to the kind of experiment: Antifungal activity evaluation test, MIC by urease activity, Malassezia furfur IFO-0656. It counts as cell-based. The conditions noted are these: IFO0656, 96 h, MU medium, 30° C., day 4 or 5, urease activity of 20% or below, read-out: MIC M. fur. IFO-0656.
Assay [3] concerns Trichophyton mentagrophytes KD-04. Nature of the assay: Antifungal activity evaluation test, MIC, Trichophyton mentagrophytes KD-04. It counts as cell-based. The conditions noted are these: KD04, 168 h, Sabouraud Dextrose Broth, 30° C., 7 days, visual, read-out: MIC T. men. KD-04.
In another assay the test system is OVA-induced dermatitis. Nature of the assay: Ovalbumin (OVA)-induced dermatitis model, ear edema. It counts as in vivo, male ICR mouse. Also on record: key: ratio of compound's ear edema inhibition rate to FK506's (FK506 = 1.0). The conditions noted are these: test compound 1 w/v % (FK506 0.1 w/v %), 20 μL applied to auricle, 24 hours after induction. On the procedure:
(§1) The test compound was adjusted to 1 w/v % when in use with a solvent (acetone:olive oil=1:1, v/v)) and put to use. FK506 (control substance) was adjusted to 0.1 w/v % and used.
Male ICR mouse was sensitized by the administration of 0.2 mL of OVA-hydroxide aluminum gel suspension to the abdominal cavity. After 14 days from the sensitization, the thickness of the right auricle was measured with a micrometer (pre-value). After the measurement, 20 μL of 0.5 μg/mL OVA challenge liquid (solvent was physiological saline) was subcutaneously administered to the inside of the auricle to induce ear edema. About 5 minutes after the administration of the challenge liquid, 20 μL of the test compound was applied to the outside of the auricle. After 24 hours from the induction of ear edema, the thickness of the right auricle was measured by a method similar to the pre-value (post-value). The difference between the post-value and the pre-value of ear edema by each test compound was determined, based on which the inhibition rate was calculated. The activity of each test compound was calculated with the ear edema inhibition rate of FK506 as 1.0 (ear edema inhibition rate of each test compound/ear edema inhibition rate of FK506).

Assay [4] deals with Trichophyton rubrum KD-107. As to the kind of experiment: Antifungal activity evaluation test, MIC, Trichophyton rubrum KD-107. It counts as cell-based. The conditions noted are these: KD107, 168 h, Sabouraud Dextrose Broth, 30° C., 7 days, visual, read-out: MIC T. rub. KD-107.
The subject of assay [5] is Trichophyton mentagrophytes SM-110. As to the kind of experiment: Antifungal activity evaluation test, MIC, Trichophyton mentagrophytes SM-110. It counts as cell-based. The conditions noted are these: SM110, 168 h, Sabouraud Dextrose Broth, 30° C., 7 days, visual, read-out: MIC T. men. SM-110.
For another assay, the system named is TNCB-induced dermatitis. As to the kind of experiment: 2,4,6-Trinitrochlorobenzene (TNCB)-induced dermatitis model, ear edema. It counts as in vivo, male BALB/c mouse. The conditions noted are these: test compound 1 w/v % (FK506 0.1 w/v %), 20 μL applied to auricle, 24 hours after induction. On the procedure: as §1
The fur on the abdomen of male BALB/c mouse was shaved with a hair clipper, and 100 μL of 7 w/v % TNCB sensitizing liquid (solvent was acetone:olive oil=4:1, v/v) was applied. Six days after the sensitization, the thickness of the right auricle was measured with a micrometer (pre-value). After the measurement, 10 μL of 1 w/v % TNCB challenge liquid (solvent was acetone:olive oil=1:9, v/v) was applied to the inside of the right auricle to induce ear edema. About 5 minutes after the application of the challenge liquid, 20 μL of the test compound was applied to the outside of the auricle.
After 24 hours from the induction of ear edema, the thickness of the right auricle was measured by a method similar to the pre-value (post-value). The difference between the post-value and the pre-value of ear edema by each test compound was determined, based on which the inhibition rate was calculated. The activity of each test compound was calculated with the ear edema inhibition rate of FK506 as 1.0 (ear edema inhibition rate of each test compound/ear edema inhibition rate of FK506).

≈ marks a conversion by molar mass, not a printed value.

Regarding `CN(C)N=C(c1ccccc1CCc1ccccc1)n1ccnc1` [Compound No. 6, N′-[1-imidazol-1-yl-1-(2-phenethylphenyl)methylidene]-N,N-dimethylhydrazine], the MIC in assay [1] was 0.1 µg/mL (≈ 0.314 µM); in assay [2], 0.78 µg/mL (≈ 2.45 µM); in assay [3] it was 0.05 µg/mL (≈ 0.157 µM); in assay [4], 0.05 µg/mL (≈ 0.157 µM); in assay [5], 0.1 µg/mL (≈ 0.314 µM). For the same compound, the “OVA-induced dermatitis, with ear edema inhibition rate of FK506 as 1.0” value with OVA-induced dermatitis amounted to 1.4. Also, in the assay on TNCB-induced dermatitis, the “TNCB-induced dermatitis, with ear edema inhibition rate of FK506 as 1.0” value came to 0.7.

In the case of `CN(C)N=C(c1ccccc1CCCOc1ccccc1)n1ccnc1` [Compound No. 9, N′-[1-imidazol-1-yl-1-[2-(3-phenoxypropyl)phenyl]methylidene]-N,N-dimethylhydrazine], the MIC in assay [1] is 0.05 µg/mL (≈ 0.143 µM); in assay [2] it was 0.2 µg/mL (≈ 0.574 µM); in assay [3], 0.05 µg/mL (≈ 0.143 µM); in assay [4], 0.05 µg/mL (≈ 0.143 µM); in assay [5], 0.2 µg/mL (≈ 0.574 µM). Besides, the “OVA-induced dermatitis, with ear edema inhibition rate of FK506 as 1.0” value in the assay on OVA-induced dermatitis was 1.2. Moreover, the “TNCB-induced dermatitis, with ear edema inhibition rate of FK506 as 1.0” value with TNCB-induced dermatitis came to 0.7.

As for `CN(C)N=C(c1ccccc1OCCCCOc1ccccc1)n1ccnc1` [Compound No. 71, N′-[1-imidazol-1-yl-1-[2-(4-phenoxybutoxy)phenyl]methylidene]-N,N-dimethylhydrazine], the MIC in assay [1] is 0.05 µg/mL (≈ 0.132 µM); in assay [2] it was 0.05 µg/mL (≈ 0.132 µM); in assay [3] it was 0.05 µg/mL (≈ 0.132 µM); in assay [4], 0.025 µg/mL (≈ 0.0661 µM); in assay [5] it was 0.1 µg/mL (≈ 0.264 µM). Besides, the “OVA-induced dermatitis, with ear edema inhibition rate of FK506 as 1.0” value in the assay with OVA-induced dermatitis stood at 0.9. Further, the “TNCB-induced dermatitis, with ear edema inhibition rate of FK506 as 1.0” value with TNCB-induced dermatitis was found to be 0.9.

As for `CN(C)N=C(c1sccc1OCCOc1ccccc1)n1ccnc1` [Compound No. 101, N′-[1-imidazol-1-yl-1-[3-(2-phenoxyethoxy)thiophen-2-yl]methylidene]-N,N-dimethylhydrazine], the MIC in assay [1] was determined as 0.05 µg/mL (≈ 0.14 µM); in assay [2] it was 0.2 µg/mL (≈ 0.561 µM); in assay [3], 0.05 µg/mL (≈ 0.14 µM); in assay [4], 0.05 µg/mL (≈ 0.14 µM); in assay [5] it was 0.2 µg/mL (≈ 0.561 µM). Further, in the assay on OVA-induced dermatitis, the “OVA-induced dermatitis, with ear edema inhibition rate of FK506 as 1.0” value was determined as 1.4. Further, the “TNCB-induced dermatitis, with ear edema inhibition rate of FK506 as 1.0” value in the assay on TNCB-induced dermatitis was determined as 0.8.

On to `CCN(C)N=C(c1ccccc1OCCOc1ccccc1)n1ccnc1` [Compound No. 114, N-ethyl-N′-[1-imidazol-1-yl-1-[2-(2-phenoxyethoxy)phenyl]methylidene]-N-methylhydrazine], for which the MIC in assay [1] is 0.1 µg/mL (≈ 0.274 µM); in assay [2], 0.2 µg/mL (≈ 0.549 µM); in assay [3], 0.2 µg/mL (≈ 0.549 µM); in assay [4] it was 0.05 µg/mL (≈ 0.137 µM); in assay [5], 0.39 µg/mL (≈ 1.07 µM). In addition, the “OVA-induced dermatitis, with ear edema inhibition rate of FK506 as 1.0” value in the assay with OVA-induced dermatitis came to 0.9. Further, in the assay on TNCB-induced dermatitis, the “TNCB-induced dermatitis, with ear edema inhibition rate of FK506 as 1.0” value was 0.7.

Take `CCN(C)N=C(c1ccccc1OCCCOc1ccccc1)n1ccnc1` [Compound No. 115, N-ethyl-N′-[1-imidazol-1-yl-1-[2-(3-phenoxypropoxy)phenyl]methylidene]-N-methylhydrazine]: the “OVA-induced dermatitis, with ear edema inhibition rate of FK506 as 1.0” value in the assay with OVA-induced dermatitis amounted to 1.4. Further, in the assay on TNCB-induced dermatitis, the “TNCB-induced dermatitis, with ear edema inhibition rate of FK506 as 1.0” value was 0.7.

For the compound `CCN(C)N=C(c1ccccc1OCCCCOc1ccccc1)n1ccnc1` [Compound No. 116, N-ethyl-N′-[1-imidazol-1-yl-1-[2-(4-phenoxybutoxy)phenyl]methylidene]-N-methylhydrazine], the “OVA-induced dermatitis, with ear edema inhibition rate of FK506 as 1.0” value in the assay on OVA-induced dermatitis came to 1.1. Further, in the assay on TNCB-induced dermatitis, the “TNCB-induced dermatitis, with ear edema inhibition rate of FK506 as 1.0” value is on record as 0.7.

Take `CCN(CC)N=C(c1ccccc1OCCOc1ccccc1)n1ccnc1` [Compound No. 119, N,N-diethyl-N′-[1-imidazol-1-yl-1-[2-(2-phenoxyethoxy)phenyl]methylidene]hydrazine]: the “OVA-induced dermatitis, with ear edema inhibition rate of FK506 as 1.0” value in the assay with OVA-induced dermatitis is listed as 1.1. Moreover, in the assay with TNCB-induced dermatitis, the “TNCB-induced dermatitis, with ear edema inhibition rate of FK506 as 1.0” value is listed as 0.9.

As for `CCCCCOc1ccccc1C(=NN1CCCC1)n1ccnc1` [Compound No. 157, [1-imidazol-1-yl-1-(2-pentyloxyphenyl)methylidene]pyrrolidin-1-ylamine], the MIC in assay [1] is 0.05 µg/mL (≈ 0.153 µM); in assay [2], 0.2 µg/mL (≈ 0.613 µM); in assay [3], 0.05 µg/mL (≈ 0.153 µM); in assay [4], 0.05 µg/mL (≈ 0.153 µM); in assay [5], 0.1 µg/mL (≈ 0.306 µM). Also, the “OVA-induced dermatitis, with ear edema inhibition rate of FK506 as 1.0” value in the assay on OVA-induced dermatitis worked out at 1.3. The “TNCB-induced dermatitis, with ear edema inhibition rate of FK506 as 1.0” value in the assay with TNCB-induced dermatitis is 0.8.

As for `c1ccc(OCCOc2ccccc2C(=NN2CCCCC2)n2ccnc2)cc1` [Compound No. 175, [1-imidazol-1-yl-1-[2-(2-phenoxyethoxy)phenyl]methylidene]piperidin-1-ylamine], the “OVA-induced dermatitis, with ear edema inhibition rate of FK506 as 1.0” value in the assay with OVA-induced dermatitis is 1.4. The “TNCB-induced dermatitis, with ear edema inhibition rate of FK506 as 1.0” value with TNCB-induced dermatitis is given as 0.6.

For `CCOc1ccccc1C(=NN1CCCCCC1)n1ccnc1` [Compound No. 197, [1-(2-ethoxyphenyl)-1-imidazol-1-ylmethylidene]homopiperidin-1-ylamine], the “OVA-induced dermatitis, with ear edema inhibition rate of FK506 as 1.0” value in the assay on OVA-induced dermatitis stood at 1.1. In the assay with TNCB-induced dermatitis, the “TNCB-induced dermatitis, with ear edema inhibition rate of FK506 as 1.0” value was 0.7.

As for `CCCCOc1ccccc1C(=NN1CCCCCC1)n1ccnc1` [Compound No. 202, [1-(2-butoxyphenyl)-1-imidazol-1-ylmethylidene]homopiperidin-1-ylamine], the “OVA-induced dermatitis, with ear edema inhibition rate of FK506 as 1.0” value in the assay on OVA-induced dermatitis worked out at 1.0. The “TNCB-induced dermatitis, with ear edema inhibition rate of FK506 as 1.0” value in the assay with TNCB-induced dermatitis was found to be 0.7.

As to `CCCCCOc1ccccc1C(=NN1CCCCCC1)n1ccnc1` [Compound No. 203, homopiperidin-1-yl-[1-imidazol-1-yl-1-(2-pentyloxyphenyl)methylidene]amine], in the assay with OVA-induced dermatitis, the “OVA-induced dermatitis, with ear edema inhibition rate of FK506 as 1.0” value was 1.0. Further, the “TNCB-induced dermatitis, with ear edema inhibition rate of FK506 as 1.0” value in the assay with TNCB-induced dermatitis came out at 0.9.

Take `c1ccc(OCCOc2ccccc2C(=NN2CCCCCC2)n2ccnc2)cc1` [Compound No. 215, homopiperidin-1-yl-[1-imidazol-1-yl-1-[2-(2-phenoxyethoxy)phenyl]methylidene]amine]: in the assay on OVA-induced dermatitis, the “OVA-induced dermatitis, with ear edema inhibition rate of FK506 as 1.0” value was 1.2. Further, the “TNCB-induced dermatitis, with ear edema inhibition rate of FK506 as 1.0” value with TNCB-induced dermatitis was 0.8.

Turning to `c1ccc(OCCCOc2ccccc2C(=NN2CCCCCC2)n2ccnc2)cc1` [Compound No. 216, homopiperidin-1-yl-[1-imidazol-1-yl-1-[2-(3-phenoxypropoxy)phenyl]methylidene]amine], the “OVA-induced dermatitis, with ear edema inhibition rate of FK506 as 1.0” value in the assay with OVA-induced dermatitis turned out to be 1.5. The “TNCB-induced dermatitis, with ear edema inhibition rate of FK506 as 1.0” value in the assay with TNCB-induced dermatitis came out at 0.5.

In the case of `FC(F)(F)Oc1ccccc1C(=NN1CCCCCC1)n1ccnc1` [Compound No. 219, homopiperidin-1-yl-[1-imidazol-1-yl-1-(2-trifluoromethoxyphenyl)methylidene]amine], the “OVA-induced dermatitis, with ear edema inhibition rate of FK506 as 1.0” value in the assay on OVA-induced dermatitis is given as 1.1. The “TNCB-induced dermatitis, with ear edema inhibition rate of FK506 as 1.0” value in the assay on TNCB-induced dermatitis was 0.6.

As to `CCSc1ccccc1C(=NN1CCCCCC1)n1ccnc1` [Compound No. 220, [1-(2-ethylthiophenyl)-1-imidazol-1-ylmethylidene]homopiperidin-1-ylamine], in the assay on OVA-induced dermatitis, the “OVA-induced dermatitis, with ear edema inhibition rate of FK506 as 1.0” value was found to be 1.1. Also, in the assay on TNCB-induced dermatitis, the “TNCB-induced dermatitis, with ear edema inhibition rate of FK506 as 1.0” value came out at 0.5.

Regarding `C=CC[C@@H]1/C=C(\C)C[C@H](C)C[C@H](OC)[C@H]2O[C@@](O)(C(=O)C(=O)N3CCCC[C@H]3C(=O)O[C@H](/C(C)=C/[C@@H]3CC[C@@H](O)[C@H](OC)C3)[C@H](C)[C@@H](O)CC1=O)[C@H](C)C[C@@H]2OC` [FK506, tacrolimus, reference compound], the “OVA-induced dermatitis, with ear edema inhibition rate of FK506 as 1.0” value in the assay on OVA-induced dermatitis amounted to 1.0. The “TNCB-induced dermatitis, with ear edema inhibition rate of FK506 as 1.0” value with TNCB-induced dermatitis amounted to 1.0.

The MIC is the lowest concentration found to suppress growth.
